According to ChEMBL document CHEMBL6109146, “Discovery of New Pyrazolone Carbothioamide Derivatives as Potent Antifungal Agents for the Treatment of Candidiasis and Cryptococcosis” (J Med Chem, 2025):
Values after ≈ are worked out from the molar mass of the structure shown. Active and inactive are the calls of the source. No cut-off for these calls is given here.

How the values were obtained:
[1] = Tmax in male ICR mouse at 2 mg/kg, iv measured after 24 hrs by LC-MS/MS analysis; format: ADME, organism-based; details: in vivo
[2] = AUC (0 to t) in male ICR mouse at 2 mg/kg, iv measured after 24 hrs by LC-MS/MS analysis; format: ADME, organism-based; details: in vivo
[3] = AUC (0 to infinity) in male ICR mouse at 2 mg/kg, iv measured after 24 hrs by LC-MS/MS analysis; format: ADME, organism-based; details: in vivo
[4] = Volume of distribution at steady state in male ICR mouse at 2 mg/kg, iv measured after 24 hrs by LC-MS/MS analysis; format: ADME, organism-based; details: in vivo, read-out: Vdss
[5] = Half-life in male ICR mouse at 20 mg/kg, po measured after 24 hrs by LC-MS/MS analysis; format: ADME, organism-based; details: in vivo
[6] = Tmax in male ICR mouse at 20 mg/kg, po measured after 24 hrs by LC-MS/MS analysis; format: ADME, organism-based; details: in vivo
[7] = AUC (0 to t) in male ICR mouse at 20 mg/kg, po measured after 24 hrs by LC-MS/MS analysis; format: ADME, organism-based; details: in vivo
[Candida] auris [8] = Antifungal activity against Candida auris 15448 assessed as inhibition of fungal growth incubated for 48 to 72 hrs by microplate reader analysis; format: functional, organism-based; details: Candidozyma auris, time 48-72 hrs
[Candida] auris [9] = Antifungal activity against Candida auris 0029 assessed as inhibition of fungal growth incubated for 48 to 72 hrs by microplate reader analysis; format: functional, organism-based; details: Candidozyma auris, time 48-72 hrs
Cryptococcus neoformans [10] = experiment: Antifungal activity against Cryptococcus neoformans 011409 assessed as inhibition of fungal growth incubated for 48 to 72 hrs by microplate reader analysis; format: functional; details: time 48-72 hrs
Nakaseomyces glabratus [11] = experiment: Antifungal activity against Candida glabrata 9256 assessed as inhibition of fungal growth incubated for 48 to 72 hrs by microplate reader analysis; format: functional; details: time 48-72 hrs
Nakaseomyces glabratus [12] = experiment: Antifungal activity against Candida glabrata 0161 assessed as inhibition of fungal growth incubated up to 72 hrs by microplate reader analysis; format: functional, organism-based; details: dose 0.13-0.00049 µg/ml
Nakaseomyces glabratus [13] = experiment: Antifungal activity against Candida glabrata 0161 assessed as inhibition of fungal growth at <0.0078 microg/ml incubated for 72 hrs by microplate reader analysis; format: functional, organism-based; details: dose < 0.0078 µg/ml
Cryptococcus neoformans [14] = experiment: Antifungal activity against Cryptococcus neoformans H99 assessed as inhibition of fungal growth at <0.0078 microg/ml incubated for 72 hrs by microplate reader analysis; format: functional, organism-based; details: dose < 0.0078 µg/ml
Cryptococcus neoformans [15] = experiment: Fungicidal activity against Cryptococcus neoformans H99 at 32 microg/ml incubated for 72 hrs by time-kill kinetics analysis; format: functional, organism-based; details: dose 32.0 µg/ml
Nakaseomyces glabratus [16] = experiment: Fungicidal activity against Candida glabrata 0161 incubated for 48 hrs by time-kill kinetics analysis; format: functional
Cryptococcus neoformans [17] = experiment: Fungicidal activity against Cryptococcus neoformans H99 incubated for 72 hrs by time-kill kinetics analysis; format: functional
Nakaseomyces glabratus [18] = experiment: Antifungal activity against Candida glabrata 0161 assessed as inhibition of fungal growth at 32 microg/ml incubated for 48 hrs by spot-plating assay; format: functional, organism-based; details: dose 32.0 µg/ml
Cryptococcus neoformans [19] = experiment: Antifungal activity against Cryptococcus neoformans H99 assessed as inhibition of fungal cell colony formation at 0.5 microg/ml incubated for 48 hrs by spot-plating assay; format: functional, organism-based; details: dose 0.5 µg/ml
Cryptococcus neoformans [20] = experiment: Inhibition of melanin production in Cryptococcus neoformans H99 at 0.125 microg/ml by photographic analysis relative to control; format: functional
Nakaseomyces glabratus [21] = experiment: Induction of ROS accumulation in Candida glabrata 0161 assessed as increase in intracellular ROS level by measuring intense green fluorescence incubated for 24 hrs by DCFH-DA probe based fluorescence microscopic analysis; format: functional, organism-based
Nakaseomyces glabratus [22] = experiment: Induction of oxidative damage Candida glabrata 0161 assessed as increase in MDA level incubated for 24 hrs; format: functional, organism-based
Cryptococcus neoformans [23] = experiment: Upregulation of CAT1 gene expression in Cryptococcus neoformans H99 at 4 microg/ml incubated for 8 hrs by qRT-PCR analysis; format: functional; details: dose 4.0 µg/ml
Cryptococcus neoformans [24] = experiment: Upregulation of TSA1 gene expression in Cryptococcus neoformans H99 at 4 microg/ml incubated for 8 hrs by qRT-PCR analysis; format: functional; details: dose 4.0 µg/ml
Nakaseomyces glabratus [25] = experiment: Upregulation of CAT1 gene expression in Candida glabrata 0161 incubated for 8 hrs by qRT-PCR analysis; format: functional
Nakaseomyces glabratus [26] = experiment: Upregulation of GPX1 gene expression in Candida glabrata 0161 incubated for 8 hrs by qRT-PCR analysis; format: functional
Nakaseomyces glabratus [27] = experiment: Upregulation of TSA1 gene expression in Candida glabrata 0161 incubated for 8 hrs by qRT-PCR analysis; format: functional
Nakaseomyces glabratus [28] = experiment: Upregulation of TRR1 gene expression in Candida glabrata 0161 incubated for 8 hrs by qRT-PCR analysis; format: functional
[29] = Reduction in intracellular free iron ions level in Cryptococcus neoformans H99 at 4 microg/ml incubated for 24 hrs by absorbance based analysis relative to control; format: functional; design: scale not given: the % may be the effect or the level left; details: dose 4 µg/ml
Cryptococcus neoformans [30] = experiment: Antifungal activity against Cryptococcus neoformans H99 assessed as inhibition of fungal growth by measuring fold increase in MIC in presence of 10% serum containing transferrin-bound ferric iron and free iron; format: functional
Cryptococcus neoformans [31] = experiment: Antifungal activity against Cryptococcus neoformans H99 assessed as inhibition of fungal growth by measuring fold increase in MIC in presence of Fe(II) ion; format: functional
Nakaseomyces glabratus [32] = experiment: Antifungal activity against Candida glabrata 0161 assessed as inhibition of fungal growth in presence of Fe(II) ion; format: functional, organism-based
Nakaseomyces glabratus [33] = experiment: Antifungal activity against Candida glabrata 0161 assessed as inhibition of fungal growth in presence of Fe(III) ion; format: functional, organism-based
Nakaseomyces glabratus [34] = experiment: Antifungal activity against Candida glabrata 0161 assessed as inhibition of fungal growth in presence of 10% serum containing transferrin-bound ferric iron and free iron; format: functional, organism-based
Cryptococcus neoformans [35] = experiment: Antifungal activity against Cryptococcus neoformans H99 infected in cryptococcosis female ICR mouse model assessed as reduction in fungal burden in brain at 20 mg/kg, po pre-infected with fungi for 3 hrs followed by compound administration and measured after 5 days; format: functional, organism-based; details: time 5.0 day
Cryptococcus neoformans [36] = experiment: Antifungal activity against Cryptococcus neoformans H99 infected in cryptococcosis female ICR mouse model assessed as reduction in fungal burden in brain at 20 mg/kg, ip pre-infected with fungi for 3 hrs followed by compound administration and measured after 5 days; format: functional, organism-based; details: time 5.0 day
Cryptococcus neoformans [37] = experiment: Antifungal activity against Cryptococcus neoformans H99 infected in cryptococcosis female ICR mouse model assessed as neat arrangement of neuronal cells at 5 to 20 mg/kg, ip pre-infected with fungi for 3 hrs followed by compound administration and measured after 5 days by H and E staining based analysis; format: functional, organism-based; details: dose 5-20 mg/kg, time 5.0 day
Cryptococcus neoformans [38] = experiment: Antifungal activity against Cryptococcus neoformans H99 infected in cryptococcosis female ICR mouse model assessed as reduction in vacuolation in brain at 5 mg/kg, ip pre-infected with fungi for 3 hrs followed by compound administration and measured after 5 days by H and E staining based analysis; format: functional, organism-based; details: time 5.0 day
Cryptococcus neoformans [39] = experiment: Antifungal activity against Cryptococcus neoformans H99 infected in cryptococcosis female ICR mouse model assessed as reduction in cytoplasmic loosening at 20 mg/kg, ip pre-infected with fungi for 3 hrs followed by compound administration and measured after 5 days by H and E staining based analysis; format: functional, organism-based; details: time 5.0 day
Cryptococcus neoformans [40] = experiment: Antifungal activity against Cryptococcus neoformans H99 infected in cryptococcosis female ICR mouse model assessed as dense arrangement of neuronal cells at 20 mg/kg, ip pre-infected with fungi for 3 hrs followed by compound administration and measured after 5 days by H and E staining based analysis; format: functional, organism-based; details: time 5.0 day

- Tmax [1]: 4.98 min
- AUC(0-t) at 24 h [2]: 2040 ng·h/mL
- AUC(0-inf) [3]: 2100 ng·h/mL
- Vd [4]: 1.47 L/kg
- half-life [5]: 87.6 min
- Tmax [6]: 15 min
- AUC(0-t) at 24 h [7]: 4600 ng·h/mL
- MIC80 (Cryptococcus neoformans [10]): 1.2 10^-4 ug/ml
- MIC80 (Nakaseomyces glabratus [11]): 1.2 10^-4 ug/ml
Compound: Nc1cc(=O)n(C(=S)Nc2ccc(C3CCCCC3)cc2)[nH]1
- Activity ([Candida] auris [8]): Active
- Activity ([Candida] auris [9]): Active
- Activity (Nakaseomyces glabratus [12]): Dose-dependent-effect
- Activity (Nakaseomyces glabratus [13]): Not active; Decrease In Inhibitory Potency Observed
- Activity (Cryptococcus neoformans [14]): Not active; Decrease In Inhibitory Potency Observed
- Activity (Cryptococcus neoformans [15]): inactive
- MFC (Nakaseomyces glabratus [16]): 2 µg/mL (≈ 6.32 µM)
- MFC (Cryptococcus neoformans [17]): 16 µg/mL (≈ 50.6 µM)
- Activity (Nakaseomyces glabratus [18]): Moderate_effect
- Activity (Cryptococcus neoformans [19]): Active
- inhibition at 0.125 µg/mL (Cryptococcus neoformans [20]): 100%
- Activity (Nakaseomyces glabratus [21]): Active
- Activity (Nakaseomyces glabratus [22]): Active
- Activity (Cryptococcus neoformans [23]): Active
- Activity (Cryptococcus neoformans [24]): Active
- Activity (Nakaseomyces glabratus [25]): Active
- Activity (Nakaseomyces glabratus [26]): Active
- Activity (Nakaseomyces glabratus [27]): Active
- Activity (Nakaseomyces glabratus [28]): Active
- Activity [29]: ~80%
- fold change (FC) (Cryptococcus neoformans [30]): ~1000
- fold change (FC) (Cryptococcus neoformans [31]): ~1000
- Activity (Nakaseomyces glabratus [32]): inactive
- Activity (Nakaseomyces glabratus [33]): inactive
- Activity (Nakaseomyces glabratus [34]): inactive
- Activity (Cryptococcus neoformans [35]): Active
- Activity (Cryptococcus neoformans [36]): Active
- Activity (Cryptococcus neoformans [37]): Active
- Activity (Cryptococcus neoformans [38]): Not active; Slight Vacuolation Observed
- Activity (Cryptococcus neoformans [39]): Active
- Activity (Cryptococcus neoformans [40]): Active
